The record followed here is ChEMBL document CHEMBL1697821, “Development of a phospholipidosis database and predictive quantitative structure-activity relationship (QSAR) models” (Toxicol Mech Methods, 2008).

The data set deals with Phospholipidosis. As to the kind of experiment: Literature-mined public compounds from Kruhlak et al phospholipidosis modelling dataset.

In the case of `CCCNC(=O)NS(=O)(=O)c1ccc(Cl)cc1` [CHLORPROPAMIDE], the Phospholipidosis entry is recorded as “Negative: based on the absence of positive reported data from WMDD”.

Turning to `CN(C)[C@@H]1C(O)=C(C(N)=O)C(=O)[C@@]2(O)C(O)=C3C(=O)c4c(O)ccc(Cl)c4[C@@](C)(O)[C@H]3C[C@@H]12` [CHLORTETRACYCLINE], the Phospholipidosis result is on record as “Negative: confirmed by electron microscopy”.

Regarding `CN/C(=N/CCSCc1nc[nH]c1C)NC#N` [CIMETIDINE], the Phospholipidosis result is given as “Negative: confirmed by electron microscopy”.

Take `CC(C)(Oc1ccc(C2CC2(Cl)Cl)cc1)C(=O)O` (stereo not drawn) [CIPROFIBRATE]: the Phospholipidosis result is reported as “Negative: confirmed by electron microscopy”.

Consider `CN(C)CCCC1(c2ccc(F)cc2)OCc2cc(C#N)ccc21` (stereo not drawn) [CITALOPRAM], for which the Phospholipidosis entry is given as “Positive: strong inducer confirmed by electron microscopy”.

Turning to `CC[C@H]1OC(=O)[C@H](C)[C@@H](O[C@H]2C[C@@](C)(OC)[C@@H](O)[C@H](C)O2)[C@H](C)[C@@H](O[C@@H]2O[C@H](C)C[C@H](N(C)C)[C@H]2O)[C@](C)(OC)C[C@@H](C)C(=O)[C@H](C)[C@@H](O)[C@]1(C)O` [CLARITHROMYCIN], the Phospholipidosis entry was “Negative: confirmed by electron microscopy”.

Take `O=C(O)[C@H]1/C(=C/CO)O[C@@H]2CC(=O)N21` [CLAVULANIC ACID]: the Phospholipidosis entry is listed as “Negative: based on the absence of positive reported data from WMDD”.

Take `CCC[C@@H]1C[C@@H](C(=O)N[C@@H]([C@H]2O[C@H](SC)[C@H](O)[C@@H](O)[C@H]2O)[C@H](C)Cl)N(C)C1` [CLINDAMYCIN]: the Phospholipidosis result was “Positive: strong inducer confirmed by electron microscopy”.

As to `Oc1c(I)cc(Cl)c2cccnc12` [CLIOQUINOL], the Phospholipidosis result was “Negative: based on the absence of positive reported data from WMDD”.

In the case of `CC(CN(C)C)C(C)(O)Cc1ccc(Cl)cc1` (stereo not drawn) [CLOBUTINOL], the Phospholipidosis entry was “Negative: based on the absence of positive reported data from WMDD”.

Consider `CC1(C)N=C(N)N=C(N)N1OCc1ccc(Cl)c(Cl)c1` [CLOCIGUANIL], for which the Phospholipidosis result is “Positive: weak inducer based on presence of foamy macrophages and cytoplasmic vacuolations”.

`CC(C)/N=c1\cc2n(-c3ccc(Cl)cc3)c3ccccc3nc-2cc1Nc1ccc(Cl)cc1` [CLOFAZIMINE]: the Phospholipidosis result was “Negative: based on the absence of positive reported data from WMDD”.

With `CN(C)C(=O)CCCOC(=O)C(C)(C)Oc1ccc(Cl)cc1` [CLOFIBRIDE], the Phospholipidosis entry is “Negative: based on the absence of positive reported data from WMDD”.

In the case of `CCOC(=O)NC(C)(C)Cc1ccc(Cl)cc1` [CLOFOREX], the Phospholipidosis result is listed as “Negative: confirmed by electron microscopy”.

`N#Cc1ccc(NC(=O)N=C(N)N)cc1Cl` [CLOGUANAMIL]: the Phospholipidosis entry is “Positive: weak inducer based on presence of foamy macrophages and cytoplasmic vacuolations”.

In the case of `CN(C)CCCC1c2ccccc2Nc2ccc(Cl)cc21` (stereo not drawn) [CLOMACRAN], the Phospholipidosis entry is recorded as “Positive: strong inducer confirmed by electron microscopy”.

Regarding `CN(C)CCCN1c2ccccc2CCc2ccc(Cl)cc21` [CLOMIPRAMINE], the Phospholipidosis entry is “Positive: strong inducer confirmed by electron microscopy”.

Turning to `Clc1cccc(Cl)c1N=C1NCCN1` [CLONIDINE], the Phospholipidosis result is “Negative: based on the absence of positive reported data from WMDD”.

In the case of `C[C@]12C=CC(=O)C=C1C(Cl)=C[C@@H]1[C@@H]2[C@@H](O)C[C@@]2(C)[C@H]1CC[C@]2(O)C(=O)CO` [CLOPREDNOL], the Phospholipidosis entry is listed as “Negative: based on the absence of positive reported data from WMDD”.

`CC(C)(N)Cc1ccccc1Cl` [CLORTERMINE]: the Phospholipidosis result is listed as “Negative: based on the absence of positive reported data from WMDD”.

As for `CN1CCN(C2=Nc3ccccc3Sc3ccc(Cl)cc32)CC1` [CLOTHIAPINE], the Phospholipidosis entry is “Negative: based on the absence of positive reported data from WMDD”.

Consider `CN1CCN(C2=Nc3cc(Cl)ccc3Nc3ccccc32)CC1` [CLOZAPINE], for which the Phospholipidosis result was “Positive: strong inducer confirmed by electron microscopy”.

On to `CCC(c1ccc(OCCN(CC)CC)cc1)C(CC)c1ccc(OCCN(CC)CC)cc1` (stereo not drawn) [CORALGIL], for which the Phospholipidosis entry is “Positive: strong inducer confirmed by electron microscopy”.

For the molecule `CC1CC(OC(=O)C(O)c2ccccc2)CC(C)(C)C1` (stereo not drawn) [CYCLANDELATE], the Phospholipidosis entry is “Negative: based on the absence of positive reported data from WMDD”.

Take `C[C@H]1[C@H]2Cc3ccc(O)cc3[C@]1(C)CCN2CC1CC1` [CYCLAZOCINE]: the Phospholipidosis result is recorded as “Negative: based on the absence of positive reported data from WMDD”.

For `CN1CCN(C(c2ccccc2)c2ccccc2)CC1` [CYCLIZINE], the Phospholipidosis result is “Positive: strong inducer confirmed by electron microscopy”.

`CCC1(C2=CCCCC2)C(=O)NC(=O)NC1=O` [CYCLOBARBITAL]: the Phospholipidosis entry is given as “Negative: based on the absence of positive reported data from WMDD”.

Consider `CC(=O)Oc1ccc(C(=C2CCCCC2)c2ccc(OC(C)=O)cc2)cc1` [CYCLOFENIL], for which the Phospholipidosis entry is recorded as “Negative: based on the absence of positive reported data from WMDD”.

`CC(=O)[C@@]1(O)CC[C@H]2[C@@H]3C=C(Cl)C4=CC(=O)[C@@H]5C[C@@H]5[C@]4(C)[C@H]3CC[C@@]21C` [CYPROTERONE]: the Phospholipidosis entry is on record as “Negative: based on the absence of positive reported data from WMDD”.

For the molecule `NCCS` [CYSTEAMINE], the Phospholipidosis result is “Negative: based on the absence of positive reported data from WMDD”.

For the molecule `Nc1ccn([C@@H]2O[C@H](CO)[C@@H](O)[C@@H]2O)c(=O)n1` [CYTARABINE], the Phospholipidosis result was “Negative: based on the absence of positive reported data from WMDD”.

On to `CN(C)/N=N/c1[nH]cnc1C(N)=O` [DACARBAZINE], for which the Phospholipidosis entry is given as “Negative: based on the absence of positive reported data from WMDD”.

For `CC(C)(N)CO` [DEANOL], the Phospholipidosis entry was “Negative: based on the absence of positive reported data from WMDD”.

On to `N=C(N)N1CCc2ccccc2C1` [DEBRISOQUIN], for which the Phospholipidosis result is “Negative: based on the absence of positive reported data from WMDD”.

For `C[N+](C)(C)CCCCCCCCCC[N+](C)(C)C.[Br-].[Br-]` [DECAMETHONIUM BROMIDE], the Phospholipidosis entry is on record as “Negative: based on the absence of positive reported data from WMDD”.

For `CC(=O)O[C@H]1CC[C@@]2(C)C(=CC[C@@H]3[C@@H]2CC[C@]2(C)C(=O)CC[C@@H]32)C1` [DEHYDROEPIANDROSTERONE ACETATE], the Phospholipidosis result is on record as “Negative: based on the absence of positive reported data from WMDD”.

With `CC(C)Nc1cccnc1N1CCN(C(=O)c2cc3cc(NS(C)(=O)=O)ccc3[nH]2)CC1` [DELAVIRDINE], the Phospholipidosis entry is “Negative: based on the absence of positive reported data from WMDD”.

As to `CNCCCN1c2ccccc2CCc2ccccc21` [DESIPRAMINE], the Phospholipidosis entry is “Positive: weak inducer based on presence of foamy macrophages and cytoplasmic vacuolations”.

Consider `CC(=O)OCC(=O)[C@H]1CC[C@H]2[C@@H]3CCC4=CC(=O)CC[C@]4(C)[C@H]3CC[C@]12C` [DESOXYCORTICOSTERONE ACETATE], for which the Phospholipidosis entry is reported as “Negative: based on the absence of positive reported data from WMDD”.

In the case of `CN1C(=O)CN=C(c2ccccc2)c2cc(Cl)ccc21` [DIAZEPAM], the Phospholipidosis entry is reported as “Negative: confirmed by electron microscopy”.

As for `NC[C@@H]1CC[C@@H](N)[C@@H](O[C@H]2[C@H](O)[C@@H](O[C@H]3O[C@H](CO)[C@@H](O)[C@H](N)[C@H]3O)[C@H](N)C[C@@H]2N)O1` [DIBEKACIN], the Phospholipidosis result is reported as “Positive: strong inducer confirmed by electron microscopy”.

With `Cc1cc(=O)n(-c2ccccc2)n1C.OC(O)C(Cl)(Cl)Cl.OC(O)C(Cl)(Cl)Cl` [DICHLORALPHENAZONE], the Phospholipidosis result is recorded as “Negative: based on the absence of positive reported data from WMDD”.

Regarding `NS(=O)(=O)c1cc(Cl)c(Cl)c(S(N)(=O)=O)c1` [DICHLORPHENAMIDE], the Phospholipidosis entry is reported as “Negative: based on the absence of positive reported data from WMDD”.

As to `C[C@H]1O[C@@H](O[C@H]2[C@@H](O)C[C@H](O[C@H]3[C@@H](O)C[C@H](O[C@H]4CC[C@@]5(C)[C@H](CC[C@@H]6[C@@H]5C[C@@H](O)[C@]5(C)[C@@H](C7=CC(=O)OC7)CC[C@]65O)C4)O[C@@H]3C)O[C@@H]2C)C[C@H](O)[C@@H]1O` [DIGOXIN], the Phospholipidosis entry is reported as “Negative: based on the absence of positive reported data from WMDD”.

Turning to `NNc1nnc(NN)c2ccccc12` [DIHYDRALAZINE], the Phospholipidosis result is recorded as “Negative: based on the absence of positive reported data from WMDD”.

As to `CN(C)CCCN1c2ccccc2C(C)(C)c2ccccc21` [DIMETACRINE], the Phospholipidosis entry is “Negative: based on the absence of positive reported data from WMDD”.

In the case of `CCCCC[C@H](O)/C=C/[C@@H]1[C@@H](C/C=C\CCCC(=O)O)[C@@H](O)C[C@H]1O` [DINOPROST], the Phospholipidosis result is “Negative: based on the absence of positive reported data from WMDD”.

On to `OC(CCCN1CCCCC1)(c1ccccc1)c1ccccc1` [DIPHENIDOL], for which the Phospholipidosis entry is listed as “Negative: based on the absence of positive reported data from WMDD”.

On to `CC(C)N(CCC(CCN1CCCCC1)(C(N)=O)c1ccccc1Cl)C(C)C` (stereo not drawn) [DISOBUTAMIDE], for which the Phospholipidosis entry was “Positive: strong inducer confirmed by electron microscopy”.

As for `CC(C)N(CCC(C(N)=O)(c1ccccc1)c1ccccn1)C(C)C` (stereo not drawn) [DISOPYRAMIDE], the Phospholipidosis result is reported as “Negative: based on the absence of positive reported data from WMDD”.

As for `CCN(CC)C(=S)S` [DITIOCARB], the Phospholipidosis result was “Negative: based on the absence of positive reported data from WMDD”.

On to `COc1cc(CC2c3c(cc(OC)c(OC)c3OC)CC[N+]2(C)CCCOC(=O)CCC(=O)OCCC[N+]2(C)CCc3cc(OC)c(OC)c(OC)c3C2Cc2cc(OC)c(OC)c(OC)c2)cc(OC)c1OC.[Cl-].[Cl-]` (stereo not drawn) [DOXACURIUM CHLORIDE], for which the Phospholipidosis result is listed as “Negative: based on the absence of positive reported data from WMDD”.

With `Cn1c(=O)c2c(ncn2CC2OCCO2)n(C)c1=O` [DOXOFYLLINE], the Phospholipidosis entry is “Negative: based on the absence of positive reported data from WMDD”.
